Patent publication US20250008950A1, “BIOCIDE COMPOSITIONS” (BASF SE, priority 2021, published 2025)

Assay: Solubility of biocide in solvent system (A1+A2)
Assay type: physicochemical
Protocol: General method of preparing emulsifiable composition (C): Component (A1) and component (A2) were mixed and heated to a temperature in the range of 20° C. to 100° C. to obtain a solution. Respective amount of the biocide was charged to the above solution at a temperature in the range of 20° C. to 100° C. to obtain the solution containing biocide. Emulsifier and other optional ingredients were charged o to the above biocide containing solution to obtain the emulsifiable composition (C).

Structure (SMILES): CO/C=C(/C(=O)OC)c1ccccc1Oc1cc(Oc2ccccc2C#N)ncn1 [Azoxystrobin]
- Solubility wt. % in total (C) (solvent system Acetophenone (A1) / 2-Methoxy-4-Methylphenol (A2), molar ratio A1:A2 1:1): 27 wt. %
- Solubility wt. % in total (C) (solvent system Acetophenone (A1) / 2-sec-Butylphenol (A2), molar ratio A1:A2 1:1): 32 wt. %
- Solubility wt. % in total (C) (solvent system Acetophenone (A1) / Phenyl acetic acid (A2), molar ratio A1:A2 2:1): 25 wt. %
- Solubility wt. % in total (C) (solvent system Acetophenone (A1) / Thymol (A2), molar ratio A1:A2 1:1): 28 wt. %
